Source: patent US6315907A (priority 1997, dated 2001)

Test system: TSST-1
Assay type: binding, Staphylococcus aureus

`CCCCCCCCN` [n-octylamine] was tested. Which “adsorption ability for TSST-1” value did it give?
Its value is “enhanced to a great extent”.
